Our source for the IC50 values is patent US10189841B2, “Purinones as ubiquitin-specific protease 1 inhibitors” (Forma Therapeutics, Inc., priority 2015, dated 2019).

The structures appear in SMILES notation. Where only a bound is given, the exact number is not on record here.

In this test the target is USP1 (construct USP1 (I-785, GG670, 671AA)/UAF1 (I-677)-Flag) (Homo sapiens (Human), UniProt O94782, G670A/G671A). The experiment in a line: Ubiquitin-Rhodamine 110 assay for USP1 activity. The class given is biochemical. The conditions noted are these: USP1/UAF1 25 pM, Ub-Rh110 25 nM, 30 min preincubation. A digest of the protocol:
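Two formats with the USP1/UAF1 complex and 25 nM ubiquitin-rhodamine 110 in pH 8.0 Tris buffer with calcium, glutathione and detergent. Single-point screening used 10 µM, 100 pM enzyme and 45 min. Inhibition was set against no-enzyme and DMSO wells.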

USP1 (construct USP1 (I-785, GG670, 671AA)/UAF1 (I-677)-Flag), sequence (O94782 whole entry G670A/G671A): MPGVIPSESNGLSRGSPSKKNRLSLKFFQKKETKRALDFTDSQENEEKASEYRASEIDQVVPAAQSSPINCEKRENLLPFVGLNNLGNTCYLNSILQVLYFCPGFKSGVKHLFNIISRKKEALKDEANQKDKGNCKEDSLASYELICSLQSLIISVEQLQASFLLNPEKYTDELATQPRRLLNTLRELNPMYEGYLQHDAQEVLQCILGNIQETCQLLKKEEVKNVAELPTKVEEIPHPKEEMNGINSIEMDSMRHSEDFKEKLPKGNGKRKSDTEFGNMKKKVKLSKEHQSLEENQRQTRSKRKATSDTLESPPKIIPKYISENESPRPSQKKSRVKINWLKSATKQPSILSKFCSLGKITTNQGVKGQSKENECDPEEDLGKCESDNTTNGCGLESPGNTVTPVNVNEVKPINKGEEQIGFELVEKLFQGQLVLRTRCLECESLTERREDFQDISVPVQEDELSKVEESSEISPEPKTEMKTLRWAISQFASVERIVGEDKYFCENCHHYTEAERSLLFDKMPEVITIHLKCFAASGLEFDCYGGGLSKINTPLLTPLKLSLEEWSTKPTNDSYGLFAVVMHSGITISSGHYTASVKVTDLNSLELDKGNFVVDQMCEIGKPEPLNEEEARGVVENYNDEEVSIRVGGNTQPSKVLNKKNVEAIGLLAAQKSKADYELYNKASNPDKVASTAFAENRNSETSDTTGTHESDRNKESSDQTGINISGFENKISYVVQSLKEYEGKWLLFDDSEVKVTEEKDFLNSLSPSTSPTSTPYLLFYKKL
USP1 (construct USP1 (I-785, GG670, 671AA)/UAF1 (I-677)-Flag), sequence (Q8TAF3 whole entry partner): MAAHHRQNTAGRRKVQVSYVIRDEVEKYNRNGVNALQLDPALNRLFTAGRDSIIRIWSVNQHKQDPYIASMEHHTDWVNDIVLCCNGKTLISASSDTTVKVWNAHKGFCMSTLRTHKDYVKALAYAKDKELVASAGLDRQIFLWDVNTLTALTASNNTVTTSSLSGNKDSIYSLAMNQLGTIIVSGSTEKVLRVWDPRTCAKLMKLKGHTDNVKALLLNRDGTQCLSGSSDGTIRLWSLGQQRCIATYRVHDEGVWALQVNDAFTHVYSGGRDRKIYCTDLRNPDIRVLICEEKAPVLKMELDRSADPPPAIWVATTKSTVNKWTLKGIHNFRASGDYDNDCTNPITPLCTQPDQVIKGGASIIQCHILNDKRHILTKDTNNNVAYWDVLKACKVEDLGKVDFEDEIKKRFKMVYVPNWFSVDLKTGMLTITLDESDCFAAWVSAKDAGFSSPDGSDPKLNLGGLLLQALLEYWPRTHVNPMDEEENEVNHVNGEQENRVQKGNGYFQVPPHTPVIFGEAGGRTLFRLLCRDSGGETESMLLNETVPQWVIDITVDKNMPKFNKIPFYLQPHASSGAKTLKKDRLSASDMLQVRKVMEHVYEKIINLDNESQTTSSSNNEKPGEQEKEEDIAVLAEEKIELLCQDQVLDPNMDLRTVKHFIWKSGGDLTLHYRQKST

The IC50 is the midpoint of a concentration-inhibition curve. Higher therefore signals lower potency. For `CC(C)c1ccccc1-c1ncc2[nH]c(=O)n(Cc3ccc(-n4cccn4)c(F)c3)c2n1` [Compound I-177, 9-(3-fluoro-4-(1H-pyrazol-1-yl)benzyl)-2-(2-isopropylphenyl)-7,9-dihydro-8H-purin-8-one], the IC50 was below 0.05 µM.

Take `CC(C)c1c(F)cccc1-c1ncc2[nH]c(=O)n(Cc3ccc(-n4ccc(C5CCNCC5)n4)cc3)c2n1` [Compound I-434, 2-(3-fluoro-2-isopropylphenyl)-9-(4-(3-(piperidin-4-yl)-1H-pyrazol-1-yl)benzyl)-7,9-dihydro-8H-purin-8-one]: the IC50 was in the range of 0.05 to 0.2 µM.

Take `Cc1cn2ccnc2c(-c2ccc(Cn3c(=O)[nH]c4cnc(-c5ccccc5C(C)C)nc43)cc2)n1` [Compound I-306, 2-(2-isopropylphenyl)-9-(4-(6-methylimidazo[1,2-a]pyrazin-8-yl)benzyl)-7,9-dihydro-8H-purin-8-one]: the IC50 is below 0.05 µM.

`COc1nc(-c2ccc(Cn3c(=O)[nH]c4cnc(-c5ccccc5C(C)C)nc43)cc2)nn1C` [Compound I-295, 2-(2-isopropylphenyl)-9-(4-(5-methoxy-1-methyl-1H-1,2,4-triazol-3-yl)benzyl)-7,9-dihydro-8H-purin-8-one] had an IC50 below 0.05 µM.

`CC(C)c1ccccc1-c1ncc2[nH]c(=O)n(Cc3ccc(-c4cn(C(C)C)cn4)cc3)c2n1` [Compound I-275, 9-(4-(1-isopropyl-1H-imidazol-4-yl)benzyl)-2-(2-isopropylphenyl)-7,9-dihydro-8H-purin-8-one] registered an IC50 below 0.05 µM.

In turn, `CC(C)c1ncccc1-c1ncc2[nH]c(=O)n(Cc3ccc(-c4nc(C(F)(F)F)cn4C4CC4)cc3)c2n1` [Compound I-76, 9-(4-(1-cyclopropyl-4-(trifluoromethyl)-1H-imidazol-2-yl)benzyl)-2-(2-isopropylpyridin-3-yl)-7,9-dihydro-8H-purin-8-one] showed a 50% inhibitory concentration (IC50) below 0.05 µM.

On to `Cc1cn(C)nc1-c1ccc(Cn2c(=O)[nH]c3cnc(-c4cccnc4C(C)C)nc32)cc1` [Compound I-47, 9-(4-(1,4-dimethyl-1H-pyrazol-3-yl)benzyl)-2-(2-isopropylpyridin-3-yl)-7,9-dihydro-8H-purin-8-one], for which the half-maximal inhibitory concentration (IC50) lay in the range of 0.2 to 2 µM.

`CC(C)c1ccccc1-c1ncc2c(n1)n(Cc1ccc(-c3nccn4ccnc34)cc1)c(=O)n2C` [Compound I-289, 9-(4-(imidazo[1,2-a]pyrazin-8-yl)benzyl)-2-(2-isopropylphenyl)-7-methyl-7,9-dihydro-8H-purin-8-one]: the IC50 was below 0.05 µM.

For the molecule `CC(C)c1ccccc1-c1ncc2[nH]c(=O)n(Cc3ccc(C(=O)NC4CCCC4)cc3)c2n1` [Compound I-358, N-cyclopentyl-4-((2-(2-isopropylphenyl)-8-oxo-7,8-dihydro-9H-purin-9-yl)methyl)benzamide], the IC50 lay in the range of 0.05 to 0.2 µM.

`CC(C)c1ccccc1-c1ncc2[nH]c(=O)n([C@H](CO)c3ccccc3)c2n1` [Compound I-181, (S)-9-(2-hydroxy-1-phenylethyl)-2-(2-isopropylphenyl)-7,9-dihydro-8H-purin-8-one] gave an IC50 of 0.2 to 2 µM.

`Cc1nc(-c2ccc(Cn3c(=O)[nH]c4cnc(-c5ccccc5C(C)C)nc43)cc2)nn1C` [Compound I-294, 9-(4-(1,5-dimethyl-1H-1,2,4-triazol-3-yl)benzyl)-2-(2-isopropylphenyl)-7,9-dihydro-8H-purin-8-one] gave an IC50 below 0.05 µM.

The molecule `Cn1cc(C(F)(F)F)nc1-c1ccc(Cn2c(=O)[nH]c3cnc(-c4cccnc4OC(F)F)nc32)cc1` [Compound I-35, 2-(2-(difluoromethoxy)pyridin-3-yl)-9-(4-(1-methyl-4-(trifluoromethyl)-1H-imidazol-2-yl)benzyl)-7,9-dihydro-8H-purin-8-one] registered an IC50 below 0.05 µM.

The molecule `O=c1[nH]c2cnc(-c3ccccc3OCC(F)(F)F)nc2n1Cc1ccc(-n2cccn2)cc1` [Compound I-22, 9-(4-(1H-pyrazol-1-yl)benzyl)-2-(2-(2,2,2-trifluoroethoxy)phenyl)-7,9-dihydro-8H-purin-8-one] gave an IC50 of 0.2 to 2 µM.

With `Cn1cc(C(F)(F)F)nc1-c1ccc(Cn2c(=O)[nH]c3cnc(-c4ccccc4OC(F)(F)F)nc32)cc1` [Compound I-37, 9-(4-(1-methyl-4-(trifluoromethyl)-1H-imidazol-2-yl)benzyl)-2-(2-(trifluoromethoxy)phenyl)-7,9-dihydro-8H-purin-8-one], the IC50 was below 0.05 µM.

Molecule `CC(C)c1ccccc1-c1ncc2[nH]c(=O)n(Cc3ccc4c(c3)ncn4C)c2n1` [Compound I-182, 2-(2-isopropylphenyl)-9-((1-methyl-1H-benzo[d]imidazol-5-yl)methyl)-7,9-dihydro-8H-purin-8-one] gave an IC50 above 2 µM.

In turn, `Cn1cc(C(F)(F)F)nc1-c1ccc(Cn2c(=O)n(C)c3cnc(-c4cccnc4N4CCOCC4)nc32)cc1` [Compound I-133, 7-methyl-9-(4-(1-methyl-4-(trifluoromethyl)-1H-imidazol-2-yl)benzyl)-2-(2-morpholinopyridin-3-yl)-7,9-dihydro-8H-purin-8-one] gave an IC50 of 0.2 to 2 µM.

`Cc1cccc(-c2ncc3[nH]c(=O)n(Cc4ccc(-n5cccn5)cc4)c3n2)c1C(C)C` [Compound I-91, 9-(4-(1H-pyrazol-1-yl)benzyl)-2-(2-isopropyl-3-methylphenyl)-7,9-dihydro-8H-purin-8-one] yielded an IC50 below 0.05 µM.

For `CC(C)c1ccccc1-c1ncc2[nH]c(=O)n(Cc3ccc(C(=O)NC4COC4)cc3)c2n1` [Compound I-381, 4-((2-(2-isopropylphenyl)-8-oxo-7,8-dihydro-9H-purin-9-yl)methyl)-N-(oxetan-3-yl)benzamide], the IC50 lay within 0.2 to 2 µM.

Consider `O=c1[nH]c2cnc(-c3ccccc3C3CC3)nc2n1Cc1ccc(-n2cccn2)cc1` [Compound I-94, 9-(4-(1H-pyrazol-1-yl)benzyl)-2-(2-cyclopropylphenyl)-7,9-dihydro-8H-purin-8-one], for which the IC50 was below 0.05 µM.

For the molecule `CC(C)N(C)c1ncccc1-c1ncc2[nH]c(=O)n(Cc3ccc(-c4nc(C(F)(F)F)cn4C)cc3)c2n1` [Compound I-330, 2-(2-(isopropyl(methyl)amino)pyridin-3-yl)-9-(4-(1-methyl-4-(trifluoromethyl)-1H-imidazol-2-yl)benzyl)-7,9-dihydro-8H-purin-8-one], the IC50 lay within 0.05 to 0.2 µM.

In turn, `CC(C)c1ncccc1-c1ncc2[nH]c(=O)n(Cc3ccc(-c4nc(C(F)(F)F)cn4C)c(F)c3)c2n1` [Compound I-83, 9-(3-fluoro-4-(1-methyl-4-(trifluoromethyl)-1H-imidazol-2-yl)benzyl)-2-(2-isopropylpyridin-3-yl)-7,9-dihydro-8H-purin-8-one] came in with an IC50 below 0.05 µM.

Turning to `CC(C)c1ccccc1-c1ncc2[nH]c(=O)n(Cc3ccccc3)c2n1` [Compound I-171, 9-benzyl-2-(2-isopropylphenyl)-7,9-dihydro-8H-purin-8-one], the IC50 was in the range of 0.05 to 0.2 µM.

Consider `CCN(CC)Cc1cn(-c2ccc(Cn3c(=O)[nH]c4cnc(-c5ccccc5C(C)C)nc43)cc2)nn1` [Compound I-346, 9-(4-(4-((diethylamino)methyl)-1H-1,2,3-triazol-1-yl)benzyl)-2-(2-isopropylphenyl)-7,9-dihydro-8H-purin-8-one], for which the IC50 was above 2 µM.
